# Legend:
# [1] = pKa measurement; format: physicochemical
# [2] = tested on: E. coli ATCC 25922 or P. aeruginosa K2732; assay: Bacterial cytological profiling (Example 6), cell viability, strain not stated; format: cell-based; conditions: within minutes, from initial 10^9 CFU/mL
# Procedure: This bacterial cytological profiling (BCP) study uses methods and materials described previously by Nonejuie, P., Burkart, M., Poglianoa, K., Pogiano, J. (2013). Bacterial cytological profiling rapidly identifies the cellular pathways targeted by antibacterial molecules. Proc. Natl. Acad. Sci. U.S.A. 110(40):16169-16174. doi: 10.1073/pnas.1311066110.
# Wild type strains of E. coli ATCC 25922 or P. aeruginosa K2732 are grown in rich media (unbuffered 2× Lysogeny broth [LB]) at 30 C to an OD600˜0.4. These cultures are then split and each sample treated with the appropriate concentration of Nu-8 in unbuffered or buffered LB (final mixture OD600˜0.1). Cells exposed without Nu-8 are buffered to pH 4 with phosphoric acid.
# The BCP is performed in LB media buffered to pH 4. The minimum inhibitory concentration (MIC) is measured for Nu-3, Nu-4, Nu-5, and Nu-8 against each bacterial strain. As one of ordinary skill in the art understands, minimum inhibitory concentrations are the lowest concentration of an antimicrobial that will inhibit the visible growth of a microorganism after overnight incubation. […] Cellular viability is assayed at three time points (5 minutes and 4 and 24 h following the onset of treatment).
# [3] = tested on: Streptococcus pneumoniae (PRSP); assay: MIC at pH 3.5 (CLSI, Mueller-Hinton broth); format: cell-based
# [4] = tested on: Escherichia coli (strain CFT073, TPPS 1041); assay: Urinary tract infection model in BALB/c mice, initial efficacy (Example 10); format: in vivo; conditions: 1025 mg/kg pH 3.5 transurethral at 24 hr
# Source text: Female BALB/c mice (20-22 g) ordered from Envigo are acclimated to housing conditions and handled in accordance with Animal Use Protocol (AUP) number TP-08. Animals are fed irradiated Teklad Global 29 18 Rodent Diet and water ad libitum. Mice are housed 6/cage in static cages with irradiated ⅛″ Teklad corn cobbedding 7902 inside bioBubble® clean rooms that provide H.E.P.A filtered air into the bubble environment at 100 complete air changes per hour. The environment is controlled to a temperature range of 74°±4° F. and a humidity range of 30-70%. All procedures carried out in this experiment are conducted in compliance with the laws, regulations, and guidelines of the National Institutes of Health and with the approval of the TransPharm Preclinical Solutions Animal Care and Use Committee.
# A clinical isolate of Escherichia coli (strain CFT073, TPPS 1041) are procured from the University of Michigan.
# The organism is grown overnight at 37° C. in ambient atmosphere on trypticase soy agar plates supplemented with 5% sheep blood cells. The culture is aseptically swabbed and transferred to tubes of trypticase soy broth. The optical density is determined at 600 nm. The culture is diluted to provide an inoculum of approximately 7.5 log10 CFU per mouse in a volume of 30 μL. Instillation of the bacterial challenge constituted time 0 hour for the study. Inoculum counts are estimated before inoculation by optical density and confirmed after inoculation by dilution and back counts.
# One hour prior to bacterial challenge, water is removed from animal cages. […]
# The primary endpoint used to assess progress of the infection is mean bacterial burden per gram of urinary bladder tissue. […] Colony forming units (CFU) are enumerated and the total bacterial burden per gram of urinary bladder tissue homogenate is calculated.
# The geometric mean CFU, along with standard error of the mean (SEM), are calculated using Microsoft Excel and bar charts are prepared for the data using GraphPad Prism v. […]
# [5] = tested on: E. coli (ATCC 25922); assay: Time kill assay in saline at pH 3.5 (Example 27); format: cell-based; conditions: for Log10 CFU/mL: pH 3.5
# Procedure: Log10 5 CFU of E. coli (ATCC 25922) were suspended in saline. Additionally, a sample of the saline only was prepared as a vehicle control (V.C.). Solutions of Nu-3, Nu-8, and Nu-10 at varying concentrations were adjusted to pH 3.5 with citric acid and added to the E. coli suspensions. At each time point (0, 1, 2.5, 5, 10, and 20 minutes), the treated bacterial suspensions were plated and incubated for 24 hrs, and each plate was read to determine the CFU count.
# Tables 12-14 provide the time kill assay data for Nu-3 (Table 12), Nu-8 (Table 13) and Nu-10 (Table 14) against E. coli.
smiles,measurement,setting,value
"CCCCOP(=O)(O)OC[C@H]1O[C@@H](n2ccc(N)nc2=O)C[C@@H]1OP(=O)(O)OCCCC [Nu-8, sodium ((2R,3S,5R)-5-(4-amino-2-oxopyrimidin-1(2H)-yl)-3-((butoxyoxidophosphor-yl)oxy)tetrahydrofuran-2-yl)methyl butyl phosphate]",pKa,[1],3.2
same,cell viability,[2],< 10^2 CFU/mL
same,MIC,[3],9.38 to 18.8 mg/mL
same,mean bladder CFU burden,[4]; 20 minutes post-treatment,2.9 log10 CFU
same,mean bladder CFU burden,[4]; 60 minutes post-treatment,3.7 log10 CFU
same,Log10 CFU/mL,"[5]; 2.5% solution, 0 min",5.20 Log10 CFU/mL
same,Log10 CFU/mL,"[5]; 2.5% solution, 1 min",4.93 Log10 CFU/mL
same,Log10 CFU/mL,"[5]; 2.5% solution, 2.5 min",4.90 Log10 CFU/mL
same,Log10 CFU/mL,"[5]; 2.5% solution, 5 min",4.93 Log10 CFU/mL
same,Log10 CFU/mL,"[5]; 2.5% solution, 10 min",4.90 Log10 CFU/mL
same,Log10 CFU/mL,"[5]; 2.5% solution, 20 min",4.93 Log10 CFU/mL
same,Log10 CFU/mL,"[5]; 5% solution, 0 min",5.20 Log10 CFU/mL
same,Log10 CFU/mL,"[5]; 5% solution, 1 min",4.88 Log10 CFU/mL
same,Log10 CFU/mL,"[5]; 5% solution, 2.5 min",4.92 Log10 CFU/mL
same,Log10 CFU/mL,"[5]; 5% solution, 5 min",4.90 Log10 CFU/mL
same,Log10 CFU/mL,"[5]; 5% solution, 10 min",4.95 Log10 CFU/mL
same,Log10 CFU/mL,"[5]; 5% solution, 20 min",4.90 Log10 CFU/mL
same,Log10 CFU/mL,"[5]; 10% solution, 0 min",5.20 Log10 CFU/mL
same,Log10 CFU/mL,"[5]; 10% solution, 1 min",4.86 Log10 CFU/mL
same,Log10 CFU/mL,"[5]; 10% solution, 2.5 min",4.79 Log10 CFU/mL
same,Log10 CFU/mL,"[5]; 10% solution, 5 min",4.76 Log10 CFU/mL
same,Log10 CFU/mL,"[5]; 10% solution, 10 min",4.71 Log10 CFU/mL
same,Log10 CFU/mL,"[5]; 10% solution, 20 min",4.75 Log10 CFU/mL
same,kill of the bacteria,"[5]; concentration of 10%, at 20 mins",modest kill

# From patent US12054509B2, “Antimicrobial compounds, compositions, and uses thereof” (Lakewood Amedex, Inc., priority 2017, dated 2024)
